Test results published in patent US6376666B1 (Nauchno-Issledovatelsky Institut Farmakologii Rossiiskoi …, priority 1994, dated 2002).

Columns and labels:
Assay type in all cases: in vivo
outbred male rats = experiment: conflict Vogel test (punished licking of water); details: M ± mx
Procedure: The study of anxiolytic activity of chosen compounds was carried out in the experiments with outbred male rats weighing 180-200 g in standard conflict Vogel' procedure [Voronina T. A. et al., in: “Phenazepam”, Naukova Dumka, Kiev, 1982, p.89, 93, 146]. The main aim of the initial step of experiments was the training of rats to develop the feeling of thirst with following experience of water licking from bottle in the experimental chamber. The animals were deprived of water for 24 hours and were placed in the test chamber for 5-min adaptation period during which they had free access to the drinking bottle. After another 24 h deprivation period the rats were placed again in the test chamber and were allowed to drink water for 5 sec. Immediately afterwards drinking attempts were punished by electric shock (0,5 mA). Under this collision of drinking and protective reflexes the extremal situation was developed. In this situation the anxiety of punishment prevented the licking process. The number of shocks received throughout a 5-min experimental session was recorded.

outbred male mice = experiment: rotarod test (myorelaxant activity); details: cut-off 120 sec
Procedure: The myorelaxant activity of choosen compounds were studied in the outbred male mice weighing 22-25 g in rotarod test [Voronina T. A. et al., in: “Phenazepam”, Naukova Dumka, Kiev, 1982, p.145]. The animals were placed on the horizontal rotarod (D=2 cm) calibrated for a fixed speed of 4 rpm. According to the rotarod experimental protocol, normal motor coordination was defined by the ability of the animals to remain on the rotarod for an arbitrarily selected time of 120 sec.

C57B1/6 mice = experiment: open-field test, C57B1/6 mice (active type of emotional-stress reaction); details: i.p., doses that activate Balb/c mice
Description: (§1) The main point of this approach consists in comparative analysis of the behavioural effects of tested compounds in two inbred strains of mice Balb/c and C57B1/6 with different hereditary types of emotional-stress reactions (ESR). The anxiolytic effect was estimated as the activation of the locomotor activity of animals with “passive” type of ESR (Balb/c mice). The main index describing the sedative properties of tested drugs was the inhibition of the locomotor activity of mice with “active” type of ESR (C57B1/6 strain). The anxioselectivity was evaluated according to coincidence of doses range which activated or inhibited the behavior of mice of different strains. Earlier this approach has been successfully used for estimation of anxioselective activity of such known drugs as phenazepam [Seredenin S. B. et al., Bull.Exp.Biol.Med., 1979, v.88, N7, p.38; Seredenin S. B. et al., Ann.Inst.Super.Sanita, 1990, v.26, N1, p.81-88], mexidol [Seredenin S. B. et al., Khimiko-Farmatsevt.Zhurnal, 1987, N2, p.134; Vironina T. A., Seredenin S. B., Ann.Inst.Super.Sanita, 1988, v.24, N3, p.461-466] and gidazepam [Seredenin S. B. et al., in: “Gidazepam” Kiev, Naukova Dumka, 1992, p.92; Seredenin S. B., Blednov Yu. A., Phys.Chem.Biol.Med., 1993, v.1, N1, p.53-60].
(§2) Male C57B1/6 and Balb/c mice (“Stolbovaya” animal farm), weighing 20-22 g were used. The animals were housed in a separate animal room in groups of ten and maintained on 12 h light-dark cycle (light from 8.00 till 20.00) with free access to standard food and water during two weeks before experiment. Testing was performed between 9.00 and 13.00. Every used compound was administered intraperitoneally in water solutions 30 min before testing (0,1 ml solution per 10 g of weight). The “open-field” apparatus consisted of cylinder closed from one end, illuminated by four 75 W lamps fixed to the walls 100 cm above the floor. The “open-field” apparatus was 100 cm in diameter and white-painted; the floor was marked with 3 black circles and some radial lines divided the floor into 16 peripheral and 8 central segments. 30 min after injection each animal was placed in the same peripheral square on the floor for 3 min of testing after 1 min exposure in the dark chamber. The following behavior variables were recorded: 1) the number of crossings in the peripheral area (peripheral activity); 2) the number of crossings in the central segments (central activity); 3) the number of rearings (vertical activity); 4) the emotionality was measured as the number of defecations during the test. The sum of all types of locomotor activity was marked as total activity. The t-Student test was used for statistical analysis.

Balb/c mice = experiment: open-field test, Balb/c mice (passive type of emotional-stress reaction); design: key to Total activity: sum of all locomotor activity counts (crossings + rearings) in 3 min; details: for Central activity (crossings) / Number of defecations / Peripheral activity (crossings) / Total activity / Vertical activity (rearings): M ± mx; for effect on the behavior (locomotor activity) of Balb/c mice in open-field test, in words: i.p., screening
Description: as §1, §2

male outbred mice = experiment: potentiation of sleep induced by sodium thiopental
Procedure: The possible hypnotic effects of choosen drugs was estimated according to method of potentiation of sleep induced by sodium thiopental. The male outbred mice weighing 20-25 g were injected i.p. with sodium thiopental at dose of 70 mg/kg. Two parameters were estimated: latent time of sleeping and duration of sleep. The used compounds were administered i.p. 30 min prior injection of sodium thiopental.

[1] = 0.5 mg/kg i.p. 30 min before thiopental 70 mg/kg i.p.
[2] = 1.0 mg/kg i.p. 30 min before thiopental 70 mg/kg i.p.
[3] = 5.0 mg/kg i.p. 30 min before thiopental 70 mg/kg i.p.
[4] = 10.0 mg/kg i.p. 30 min before thiopental 70 mg/kg i.p.

## Cc1cc2nc(SCCN3CCCCC3)[nH]c2cc1C [XIV, 2-[2-(Piperidino)ethylthio]-5,6-dimethylbenzimidazole]
Outbred male rats; 1.0 mg/kg i.p.
  number of punished lickings (shocks received in 5-min session): 31.6 ± 7.6
Outbred male rats; 5.0 mg/kg i.p.
  number of punished lickings (shocks received in 5-min session): 32.9 ± 5.8
Outbred male rats; 10.0 mg/kg i.p.
  number of punished lickings (shocks received in 5-min session): 36.0 ± 9.4
Outbred male rats; 20.0 mg/kg i.p.
  number of punished lickings (shocks received in 5-min session): 42.3 ± 10.8
Outbred male mice; 0.1 mg/kg
  time of remaining on the rotarod: 120 + 0 sec
Outbred male mice; 1.0 mg/kg
  time of remaining on the rotarod: 120 + 0 sec
Outbred male mice; 5.0 mg/kg
  time of remaining on the rotarod: 120 + 0 sec
Outbred male mice; 10.0 mg/kg
  time of remaining on the rotarod: 120 + 0 sec
Outbred male mice; 20.0 mg/kg
  time of remaining on the rotarod: 120 + 0 sec
C57B1/6 mice
  effect on locomotor activity of C57B1/6 mice in open-field test, in words: without any changes in locomotor activity
Balb/c mice; 0.1 mg/kg i.p.
  Central activity (crossings): 1.1 ± 0.7
  Number of defecations: 1.3 ± 0.5
  Peripheral activity (crossings): 27.0 ± 6.3
  Total activity: 28.2 ± 7.1
  Vertical activity (rearings): 0.1 ± 0.1
Balb/c mice; 0.5 mg/kg i.p.
  Central activity (crossings): 4.7 ± 2.7
  Number of defecations: 1.0 ± 0.4
  Peripheral activity (crossings): 44.4 ± 9.2
  Total activity: 49.4 ± 10.7
  Vertical activity (rearings): 0.3 ± 0.3
Balb/c mice; 1.0 mg/kg i.p.
  Central activity (crossings): 0.9 ± 0.8
  Number of defecations: 2.9 ± 0.7
  Peripheral activity (crossings): 38.7 ± 4.8
  Total activity: 39.7 ± 5.7
  Vertical activity (rearings): 0.1 ± 0.1
Balb/c mice; 5.0 mg/kg i.p.
  Central activity (crossings): 2.8 ± 1.8
  Number of defecations: 0.7 ± 0.7
  Peripheral activity (crossings): 58.7 ± 7.2
  Total activity: 61.3 ± 9.0
Balb/c mice; 10.0 mg/kg i.p.
  Number of defecations: 2.0 ± 0.9
  Peripheral activity (crossings): 67.8 ± 11.1
  Total activity: 67.8 ± 11.1
Balb/c mice; 20.0 mg/kg i.p.
  Central activity (crossings): 3.4 ± 3.4
  Number of defecations: 0.1 ± 0.1
  Peripheral activity (crossings): 17.3 ± 8.0
  Total activity: 20.8 ± 9.6
  Vertical activity (rearings): 0.1 ± 0.1
Balb/c mice
  effect on the behavior (locomotor activity) of Balb/c mice in open-field test, in words: able to activate the behavior of Balb/c mice
Male outbred mice; [1]
  duration of sleep after sodium thiopental: 91.0 ± 17.8 min
  latent time of sleep after sodium thiopental: 2.5 ± 0.5 s
Male outbred mice; [2]
  latent time of sleep after sodium thiopental: 2.5 ± 0.2 s
Male outbred mice; [3]
  duration of sleep after sodium thiopental: 86.4 ± 13.9 min
  latent time of sleep after sodium thiopental: 2.2 ± 0.2 s
Male outbred mice; [4]
  duration of sleep after sodium thiopental: 70.6 ± 9.0 min
  latent time of sleep after sodium thiopental: 2.9 ± 0.4 s

## C=CCSc1nc2ccc(OCC)cc2[nH]1 [IV, 2-Allylthio-5-ethoxybenzimidazole]
Outbred male rats; 1.0 mg/kg i.p.
  number of punished lickings (shocks received in 5-min session): 29.7 ± 5.3
Outbred male rats; 5.0 mg/kg i.p.
  number of punished lickings (shocks received in 5-min session): 31.0 ± 5.6
Outbred male rats; 10.0 mg/kg i.p.
  number of punished lickings (shocks received in 5-min session): 35.8 ± 7.8
Outbred male rats; 20.0 mg/kg i.p.
  number of punished lickings (shocks received in 5-min session): 62.3 ± 19.5
Outbred male mice; 0.1 mg/kg
  time of remaining on the rotarod: 120 + 0 sec
Outbred male mice; 1.0 mg/kg
  time of remaining on the rotarod: 120 + 0 sec
Outbred male mice; 5.0 mg/kg
  time of remaining on the rotarod: 120 + 0 sec
Outbred male mice; 10.0 mg/kg
  time of remaining on the rotarod: 120 + 0 sec
Outbred male mice; 20.0 mg/kg
  time of remaining on the rotarod: 120 + 0 sec
C57B1/6 mice
  effect on locomotor activity of C57B1/6 mice in open-field test, in words: without any changes in locomotor activity
Balb/c mice; 0.1 mg/kg i.p.
  Number of defecations: 0.6 ± 0.5
  Peripheral activity (crossings): 12.6 ± 2.6
  Total activity: 12.6 ± 2.6
Balb/c mice; 1.0 mg/kg i.p.
  Peripheral activity (crossings): 11.4 ± 2.3
  Total activity: 11.4 ± 2.3
Balb/c mice; 5.0 mg/kg i.p.
  Number of defecations: 1.7 ± 0.8
  Peripheral activity (crossings): 13.6 ± 3.5
  Total activity: 13.6 ± 3.5
Balb/c mice; 10.0 mg/kg i.p.
  Number of defecations: 3.0 ± 0.7
  Peripheral activity (crossings): 9.5 ± 1.9
  Total activity: 9.5 ± 1.9
Balb/c mice; 20.0 mg/kg i.p.
  Number of defecations: 2.5 ± 0.7
  Peripheral activity (crossings): 8.9 ± 2.0
  Total activity: 8.9 ± 2.0
Balb/c mice
  effect on the behavior (locomotor activity) of Balb/c mice in open-field test, in words: able to activate the behavior of Balb/c mice
Male outbred mice; [1]
  duration of sleep after sodium thiopental: 42.8 ± 13.5 min
  latent time of sleep after sodium thiopental: 3.0 ± 0.3 s
Male outbred mice; [2]
  duration of sleep after sodium thiopental: 32.5 ± 7.9 min
  latent time of sleep after sodium thiopental: 2.7 ± 0.3 s
Male outbred mice; [3]
  duration of sleep after sodium thiopental: 50.7 ± 11.0 min
  latent time of sleep after sodium thiopental: 2.8 ± 0.3 s
Male outbred mice; [4]
  duration of sleep after sodium thiopental: 45.1 ± 10.6 min
  latent time of sleep after sodium thiopental: 2.5 ± 0.1 s
